Legend:
[1] = Plasma concentrations of phenserine and its metabolites in beagle dog plasma; type: in vivo
[2] = target: acetylcholinesterase (AChE) (Homo sapiens (Human), UniProt P22303); assay: RBC AChE inhibition after oral phenserine in humans; type: in vivo; conditions: 15 mg immediate release dose, TMax (1 hr)
Experimental: For pharmacodynamics AChE inhibition analyses: erythrocyte AChE levels were evaluated in whole blood samples by using methods known in the art. Briefly, duplicate samples of freshly collected whole blood were analyzed. Cholinesterase activity, U/L, was detected at 37° C. using a differential pH procedure on a Eurochem CL-10 (Rome, Italy). The time-course of enzyme inhibition was determined for each subject by expressing each mean post-phenserine administration AChE concentration as a fraction of the mean pre-administration resting level of AChE within the same individual. This value was then subtracted from 1 and multiplied by 100% to provide percent AchE inhibition.

[3] = tested on: Sprague-Dawley rats; assay: Focal cerebral ischemia model (MCA ligation), pre-treatment; type: in vivo, rat
Experimental: (§1) Briefly, Human neuroblastoma SH-SY5Y cells were incubated in oxygen-glucose deprivation and hypoxia using serum- and glucose-free media and 95% N2 and 5% CO2 for 5 minutes. Adult male Sprague-Dawley rats (250 to 350 g weight) were anesthetized with chloral hydrate (0.4 g/kg, intraperitoneally) and right middle cerebral artery (MCA) was ligated for 60 minutes. The core body temperature of animals was maintained at 37° C. throughout the procedure.

[4] = tested on: SH-SY5Y cells; assay: Oxygen-glucose deprivation/reperfusion (OGD/RP) damage on SH-SY5Y cells; type: cell-based, human
Experimental: as §1

[5] = tested on: acetyl- and butyrylcholinesterase; assay: Cholinesterase inhibition in mice after the final dose; type: in vivo, mouse; conditions: 24 hours following the final dose
Description: The same model of concussive head injury described above with respect to FIG. 7 was used in the experiments described below with respect to FIGS. 8 and 9. […] Previous studies of drug and metabolite concentrations have shown acetylcholinesterase inhibition to be present when any concentration of drug or metabolite have been detected. […] Drug and its metabolites have been shown undetectable when no anticholinesterase activities are present.

[6] = target: amyloid precursor protein (APP) (Mus musculus (Mouse), UniProt P12023); assay: Amyloid precursor protein in primary cortical neurons (Western blot); type: cell-based; conditions: 48 hr
amyloid precursor protein (APP), sequence (P12023 whole entry, looked up): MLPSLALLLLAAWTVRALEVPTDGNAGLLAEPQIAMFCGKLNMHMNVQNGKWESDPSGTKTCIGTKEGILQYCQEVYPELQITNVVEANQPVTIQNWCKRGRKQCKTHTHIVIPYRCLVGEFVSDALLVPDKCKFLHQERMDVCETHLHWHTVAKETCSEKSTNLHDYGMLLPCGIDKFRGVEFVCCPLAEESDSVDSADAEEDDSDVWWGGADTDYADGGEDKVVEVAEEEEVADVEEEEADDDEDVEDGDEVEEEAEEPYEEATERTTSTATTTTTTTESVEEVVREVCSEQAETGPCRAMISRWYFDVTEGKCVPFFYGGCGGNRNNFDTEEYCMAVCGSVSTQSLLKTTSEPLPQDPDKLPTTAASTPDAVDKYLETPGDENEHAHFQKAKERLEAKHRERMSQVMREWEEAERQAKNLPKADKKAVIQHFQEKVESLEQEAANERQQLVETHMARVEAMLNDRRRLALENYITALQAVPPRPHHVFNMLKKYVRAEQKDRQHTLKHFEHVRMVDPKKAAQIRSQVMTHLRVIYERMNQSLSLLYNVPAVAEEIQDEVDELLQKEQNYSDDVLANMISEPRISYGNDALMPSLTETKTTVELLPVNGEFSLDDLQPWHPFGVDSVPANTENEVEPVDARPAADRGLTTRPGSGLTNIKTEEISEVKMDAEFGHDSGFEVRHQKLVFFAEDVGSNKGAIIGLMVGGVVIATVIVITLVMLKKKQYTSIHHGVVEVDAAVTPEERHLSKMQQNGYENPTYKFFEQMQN
Experimental: Primary cortical neurons were harvested and isolated from mice, and then were cultured in line with methodologies known in the art. In brief, embryonic day 15-18 mouse pups were obtained from timed pregnant female mice (5 pups). Within a laminar flow cell culture hood, the brain was removed from these mouse pups and the meninges and blood vessels were carefully removed. […] Maintained on wet ice, individual cells were then isolated by titrating some 10 times to dissociate cells by use of using a glass pasture pipette with a fire polished tip. […]
Following maintenance in cell culture (>24 hr) primary cortical neurons were challenged to known concentrations of experimental drugs for 48 hr, or vehicle (culture media) alone. […] Quantification of select proteins, for example AAP was undertaken by Western Blotting using the APP N-terminal antibody (22C11) obtained from Chemicon (Temecula, Calif.). The housekeeping protein β-actin quantified in the same samples to allow normalization, and was probed with anti-β-actin (Chemicon). The Western blots were developed by using chemiluminescence (PIERCE), were visualized with a Phospholmager (BioRad, Hercules, Calif.), and resulting bands were quantified by QuantityOne software (BioRad).

[7] = tested on: SH-SY5Y cells; assay: Cell proliferation of SH-SY5Y cells (MTS assay); type: cell-based, human; conditions: 30 uM, 24 hr
Experimental: SHSYSY cells were exposed for 24 hr to 30 uM concentration of (−)- and (+)-phenserine. After 24 hr cell proliferation was determined by MTS assay. *P,0.05, **p,0.01, and ***p,0.001 compared to control samples without drug.

[8] = tested on: wild-type mice; assay: Concussive mTBI in wild-type mice, immunohistochemistry 72 hr post injury; type: in vivo, mouse; conditions: 72 hr post TBI
Experimental: FIG. 18 illustrates (−)-Phenserine administration preventing mTBI-induced neurodegeneration in hippocampus and lateral cortex (72 hr post concussive TBI). […] Representative images of FJC staining in hippocampus (CA1) Magnification 60× (n=5/group; *p<0.05, **p<0.01, ***p<0.001 vs. Control (CTRL) sham by Tukey's post hoc test; ^^p<0.01 vs. mTBI alone by Tukey's post hoc test).
Neuroinflammation was evaluated by counting activated microglial cells experessing the marker IBA1 as well as by counting microglial cells co-expressing IBA1 and immunoreactivity for the pro-inflammatory cytokine TNF-α (Anti-IBA1 antibody: Abcam; anti-TNF-α antibody: Abbiotec). As evident in FIG. 20, activated microglial (IBA1 positive (+) staining) cells—a classical marker of neuroinflammation—were elevated in wild-type mice challenged with mTBI. (−)-Phenserine post-treatment mitigated this mTBI-induced effect (FIG. 20). Likewise, mTBI challenge induced a rise in IBA1+ activated microglial cells expressing the pro-inflammatory marker TNF-α (FIG. 21), which was similarly mitigated by (−)-phenserine post-treatment.
(−)-Phenserine mitigates losses in synaptic integrity in wild and Tg mice subjected to weight drop injury. To evaluate whether mTBI-induced elevations in markers of cell loss (FJC) and neuroinflammation (TNF-α and IBA1+) are allied with a loss of synaptic integrity (which associates with cognitive loss (Wakade et al., 2010)), post- and pre-synaptic protein markers of synaptic integrity (post-synaptic density-95 (PSD-95) and synaptophysin, respectively) were immunohistochemically stained and quantified in control (w/o head injury) and mTBI challenged mice post-treated with vehicle or (−)-phenserine. […] These declines were mitigated by post treatment with (−)-phenserine. An alike trend was evident in mTBI challenged APP/PS1 AD Tg mice, and these reductions in post- and presynaptic proteins were similarly mitigated by post-treatment with (−)-phenserine (FIG. 25)

[9] = Lipophilicity (Log D); type: physicochemical
[10] = pre-treatment, brain and SH-SY5Y cells

acetylcholinesterase (AChE), sequence (P22303 32-574 with tags or gaps limits assumed): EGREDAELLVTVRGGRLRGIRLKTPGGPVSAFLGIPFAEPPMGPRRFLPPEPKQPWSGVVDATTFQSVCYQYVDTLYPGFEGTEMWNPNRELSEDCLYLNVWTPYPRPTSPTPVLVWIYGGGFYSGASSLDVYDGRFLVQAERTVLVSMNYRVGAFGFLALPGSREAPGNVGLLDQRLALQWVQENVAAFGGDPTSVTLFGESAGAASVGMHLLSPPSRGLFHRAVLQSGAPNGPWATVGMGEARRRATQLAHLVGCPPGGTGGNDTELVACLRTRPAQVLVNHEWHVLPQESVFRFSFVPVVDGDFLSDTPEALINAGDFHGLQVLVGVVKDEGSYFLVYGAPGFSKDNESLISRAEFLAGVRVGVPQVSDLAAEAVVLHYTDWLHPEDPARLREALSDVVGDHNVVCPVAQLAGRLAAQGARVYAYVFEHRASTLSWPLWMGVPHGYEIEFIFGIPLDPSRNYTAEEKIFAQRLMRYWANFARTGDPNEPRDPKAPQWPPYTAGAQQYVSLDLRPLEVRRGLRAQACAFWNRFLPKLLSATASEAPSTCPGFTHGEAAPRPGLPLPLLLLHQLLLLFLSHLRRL

## CN1CC[C@@]2(C)c3cc(OC(=O)Nc4ccccc4)ccc3N(C)[C@@H]12 [phenserine, (−)-phenylcarbamoyleseroline]
[1]; Hour 1
  Average Plasma Concentrations: 4.95 ng/mL
[1]; Hour 2
  Average Plasma Concentrations: 15.4 ng/mL
[1]; Hour 3
  Average Plasma Concentrations: 0.71 ng/mL
[1]; Hour 4
  Average Plasma Concentrations: 0.97 ng/mL
[2]
  AChE inhibition in RBCs: 34%
[3]; pre-treatment
  B-cell lymphoma 2 (Bcl-2) expression: increased
  body symmetry: improved
  brain-derived neurotrophic factor (BDNF) expression: increased
  cell death: reduced
  glial fibrillary acidic protein (GFAP) expression: decreased
[3]; pre-treatment twice daily prior to MCA occlusion
  brain infarction area: reduced
[3]; [10]
  activated-caspase 3 levels: decreased
  amyloid precursor protein (APP) expression: decreased
[4]
  matrix metallopeptidase 9 (MMP-9): reduced
[5]
  inhibition of acetyl- and butyrylcholinesterase: no inhibition
[6]
  amyloid precursor protein level: inhibition of amyloid precursor protein
[7]
  cell proliferation (neurotrophic actions): increasing cellular proliferation
[8]; 5 mg/kg BID, hippocampus and lateral cortex
  mTBI-induced neurodegeneration (Fluoro-Jade C+ cells): fully counteracted
[8]
  mTBI-induced reductions in synaptophysin and PSD-95: mitigated
[8]; hippocampus and lateral cortex
  mTBI-induced activation of microglia (IBA1+ cells): mitigated
  mTBI-induced elevations in TNF-α within microglia (co-localized TNF-α and IBA1+ cells): mitigated
[9]
  logD: 2.2

Reference: US10864192B2, “Compositions and methods for inhibiting brain trauma-induced neurodegeneration and related conditions” (priority 2016, dated 2020)
